{
  "source": "patent US11639493B2",
  "about": "“Consortium of bacteria that mineralises lipids, starches and sugars (carbohydrates) and are resistant to lethal doses of thiodicarb (carbamate) and bifenthrin (pyrethroid) for inoculation into organic matter of different origins” (priority 2018, dated 2023)",
  "assay_type_in_all_cases": "cell-based",
  "key": {"Bacillus brevis": {"tested_on": "Bacillus brevis", "assay": "Adaptation stages: mortality of Bacillus brevis on growth media with thiodicarb or bifenthrin", "experimental": "(§1) Bacteria strains, nitrifiers, phosphorus solubilizers and antagonists for pathogens: • a) Arthrobacter globiformis • b) Bacillus megaterium • c) Bacillus brevis • d) Bacillus thuringiensis Preparation for Stage Development • 1. Glass material is sterilized in an autoclave. • 2. The required amount of growth media is prepared, DFA Agar, Malt Agar (Corn Agar) and (PDA) to obtain viable colonies. • 3. Lethal dose (LD) applied to a hectare is established, for thiodicarb as well as bifenthrin. 10 Petri dishes are prepared with 0.1 LD of thiodicarb of bifenthrin. Dishes are incubated at 25° C. for 72 hours with cold light. Methodology • a. Physical and chemical variables obtained in the research are maintained using traces. Petri dishes are placed inside the laminar flow chamber along with the diluted samples, to seed microorganisms in the dishes, a one ml sample of the strain is taken with an automated pipette, 10^−1 and 10^−2 solutions are performed and each solution is homogenized. • b. Having the petri dishes with the sterile and cold growth media, it is homogenized with 6 right to left movements, 6 clockwise movements, 6 counterclockwise movements and 6 front to back movements over a flat horizontal surface until the inoculum is completely integrated into the media, stand until it solidifies and each dish is covered with parafilm to avoid contamination during incubation. • c. The adapted consortium conditions are kept for the starting media (habitat), humidity, pH, temperature, chemical traceability, lighting and airing, Gram colorations and malachite green for the differentiation and observation of cellular structures. • d. Dishes with thiodicarb and Bifenthrin are placed inside the incubator at 25° C. for 72 hours with a cold light lamp. • e. Inoculated dishes are incubated for 72 hours and the bacteria growth will be recorded, the product concentration impact is determined over the plate growth (12 hours of incubation). • f. The residual impact of the product is reviewed after 7 days in the malt agar and PDA agar media. • g. If there is no growth over 10%, the process is repeated until a mortality under 90% is obtained. • h. The colony diameter is determined using a graduated ruler, data is recorded subtracting the diameter of the seeded dish, from which the effect over the mycelial growth will be determined compared to the control (not poisoned MA, denominated as percentage of inhibition of radial growth (PIRG %). • i. Progress is recorded daily and after 7 days analysis of an acceptable coverage is performed, if not, the procedure is repeated as many times as required. • j. From the 10 Petri dishes for each microorganism, the one with the lowest mortality is the one that will continue with the following study. • k. The study is performed again using this percentage until coverage increases and so on, the addition of thiodicarb and bifenthrin is alternated with the LD in intervals of 0.1 LD; all these experiments have been designed with the experimental strains and a control. • l. With the data obtained from the bacterial growth, the percentage of inhibition of gradual growth is obtained, the data is transformed for its analysis with the expression 2 arc sin. A two-way classification analysis of variance is applied and later the Turkey test is performed using a 5% probability.\n(§2) Characteristics for this procedure were recorded during all stages through the following indicators: • a. Growth speed • b. Percentage of inhibition measured in Number of CFU/mm • c. Percentage of poison resistance\nBeginning with habitat conditions obtained in the adaptation to organophosphate, organochlorine compounds and mercury from the microorganisms at the E-38 pH: 7.2, Humidity: 36%, thermoresistant and facultative anaerobic. These conditions are the starting point to adapt the strain to thiodicarb and bifenthrin.\nTo adapt this microorganism, 51 stages were performed, beginning the process with the conventional growth media. […]"}, "Arthrobacter globiformis": {"tested_on": "Arthrobacter globiformis", "assay": "Adaptation stages: mortality of Arthrobacter globiformis on growth media with thiodicarb or bifenthrin", "experimental": "as §1, §2\nHabitat conditions are maintained, conditions obtained during the adaptation to organophosphorus and organochlorinated compounds and mercury of the microorganism, pH: 7.0, humidity: 35%, Temperature: Thermoresistant. These conditions are the starting point to adapt the strain to the new pollutants: thiodicarb (carbamate) and bifenthrin (pyrethroid). […]"}, "Bacillus thuringiensis": {"tested_on": "Bacillus thuringiensis", "assay": "Adaptation stages: mortality of Bacillus thuringiensis on growth media with thiodicarb or bifenthrin", "experimental": "as §1, §2\nBeginning with habitat conditions obtained in the adaptation to organophosphate, organochlorine compounds and mercury from the microorganisms at the E-38 pH: 7.2, Humidity: 52%, thermoresistant (74° C.), […] and facultative anaerobic. These conditions are the starting point to adapt the strain to thiodicarb and bifenthrin. During all stages a cold light lamp will be used to adapt the microorganism to sunlight. […]"}, "Bacillus subtillis": {"tested_on": "Bacillus subtillis", "assay": "Adaptation stages: mortality of Bacillus subtillis on growth media with thiodicarb or bifenthrin"}, "[1]": {"settings": "stages E-5 and E-6, 0.1 LD (0.00000006 gr)"}, "[2]": {"settings": "stages E-7 and E-8, 0.2 LD (0.00000012 gr)"}, "[3]": {"settings": "stages E-13 and E-14, 0.3 LD (0.00000018 gr)"}, "[4]": {"settings": "stages E-21 and E-22, 0.5 LD (0.00000030 gr)"}, "[5]": {"settings": "stages E-29 and E-30, 0.7 LD (0.00000036 gr)"}, "[6]": {"settings": "stages E-37 and E-38, 0.9 LD (0.00000042 gr)"}, "[7]": {"settings": "stages E-45 and E-46, 1.1 LD (0.00000054 gr)"}},
  "data": [
    {"compound": "Cc1c(COC(=O)[C@@H]2[C@H](/C=C(\\Cl)C(F)(F)F)C2(C)C)cccc1-c1ccccc1", "note": "(racemic) [bifenthrin, 2-methyl biphenyl-3-ilmetil(2)-(1RS,3RS)-3-(2-chlorine 3,3,3-trifluoropropene)-2,2-dimethyl-cyclo-propane-carboxylate]", "values": [
      {"measurement": "Resistant to: FINAL", "setting": "Bacillus brevis; Bacillus brevis at the end of the adaptation process", "value": 1.3, "unit": "LD of"},
      {"measurement": "mortality", "setting": "Bacillus brevis; [1]", "value": 73, "unit": "%"},
      {"measurement": "mortality", "setting": "Bacillus brevis; [2]", "value": "70 to 68", "unit": "%"},
      {"measurement": "mortality", "setting": "Bacillus brevis; [3]", "value": 67, "unit": "%"},
      {"measurement": "mortality", "setting": "Bacillus brevis; [4]", "value": 55, "unit": "%"},
      {"measurement": "mortality", "setting": "Bacillus brevis; [5]", "value": 44, "unit": "%"},
      {"measurement": "mortality", "setting": "Bacillus brevis; [6]", "value": 26, "unit": "%"},
      {"measurement": "mortality", "setting": "Bacillus brevis; [7]", "value": 20, "unit": "%"},
      {"measurement": "mortality", "setting": "Arthrobacter globiformis; [1]", "value": 84, "unit": "%"},
      {"measurement": "mortality", "setting": "Arthrobacter globiformis; [2]", "value": 75, "unit": "%"},
      {"measurement": "mortality", "setting": "Arthrobacter globiformis; [3]", "value": 70, "unit": "%"},
      {"measurement": "mortality", "setting": "Arthrobacter globiformis; [4]", "value": 56, "unit": "%"},
      {"measurement": "mortality", "setting": "Arthrobacter globiformis; [5]", "value": 40, "unit": "%"},
      {"measurement": "mortality", "setting": "Arthrobacter globiformis; [6]", "value": 25, "unit": "%"},
      {"measurement": "initial mortality", "setting": "Arthrobacter globiformis; summary of the adaptation tests with increasing concentrations of thiodicarb and bifenthrin", "value": "~82", "unit": "%"},
      {"measurement": "Resistant to: FINAL", "setting": "Bacillus thuringiensis; B. Thuringiensis at the end of the adaptation process", "value": 1.2, "unit": "LD of"},
      {"measurement": "mortality", "setting": "Bacillus thuringiensis; [1]", "value": "68 to 65", "unit": "%"},
      {"measurement": "mortality", "setting": "Bacillus thuringiensis; [2]", "value": "64 to 63", "unit": "%"},
      {"measurement": "mortality", "setting": "Bacillus thuringiensis; [3]", "value": "57 to 55", "unit": "%"},
      {"measurement": "mortality", "setting": "Bacillus thuringiensis; [4]", "value": "50 to 45", "unit": "%"},
      {"measurement": "mortality", "setting": "Bacillus thuringiensis; [5]", "value": "36 to 33", "unit": "%"},
      {"measurement": "mortality", "setting": "Bacillus thuringiensis; [6]", "value": "30 to 28", "unit": "%"},
      {"measurement": "mortality", "setting": "Bacillus thuringiensis; [7]", "value": "15 to 12", "unit": "%"},
      {"measurement": "Resistant to: FINAL", "setting": "Bacillus subtillis; Bacillus subtillis at the end of the adaptation process", "value": 1, "unit": "LD of"},
      {"measurement": "mortality", "setting": "Bacillus subtillis; [1]", "value": "72 to 71", "unit": "%"},
      {"measurement": "mortality", "setting": "Bacillus subtillis; [2]", "value": "70 to 68", "unit": "%"},
      {"measurement": "mortality", "setting": "Bacillus subtillis; [3]", "value": 65, "unit": "%"},
      {"measurement": "mortality", "setting": "Bacillus subtillis; [4]", "value": "47 to 45", "unit": "%"},
      {"measurement": "mortality", "setting": "Bacillus subtillis; [5]", "value": "25 to 23", "unit": "%"},
      {"measurement": "mortality", "setting": "Bacillus subtillis; [6]", "value": "8 to 6", "unit": "%"}
    ]}
  ]
}
